The assay concerns the target human F508del-CFTR (Homo sapiens, UniProt P13569, DEL508-508). Kind of assay: F508del-CFTR cell surface expression (corrector activity), DiscoveRx ß-galactosidase complementation chemiluminescence assay in recombinant U2OS cell line.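 On all read-outs here: U2OS cells co-expressing ProLink-tagged F508del-CFTR and a membrane-anchored enzyme acceptor, where more surface CFTR restores β-galactosidase activity measured by chemiluminescence.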 As to conditions: for EC50: EC50, F508del-CFTR cell surface expression, U2OS cells, 16h compound incubation, geomean values; for Emax: U2OS, in relation to Emax of corrector lumacaftor (=100%), arithmetic mean values.

Molecules are shown by their SMILES.

Sequence of human F508del-CFTR (P13569 with tags, fused parts or gaps DEL508-508): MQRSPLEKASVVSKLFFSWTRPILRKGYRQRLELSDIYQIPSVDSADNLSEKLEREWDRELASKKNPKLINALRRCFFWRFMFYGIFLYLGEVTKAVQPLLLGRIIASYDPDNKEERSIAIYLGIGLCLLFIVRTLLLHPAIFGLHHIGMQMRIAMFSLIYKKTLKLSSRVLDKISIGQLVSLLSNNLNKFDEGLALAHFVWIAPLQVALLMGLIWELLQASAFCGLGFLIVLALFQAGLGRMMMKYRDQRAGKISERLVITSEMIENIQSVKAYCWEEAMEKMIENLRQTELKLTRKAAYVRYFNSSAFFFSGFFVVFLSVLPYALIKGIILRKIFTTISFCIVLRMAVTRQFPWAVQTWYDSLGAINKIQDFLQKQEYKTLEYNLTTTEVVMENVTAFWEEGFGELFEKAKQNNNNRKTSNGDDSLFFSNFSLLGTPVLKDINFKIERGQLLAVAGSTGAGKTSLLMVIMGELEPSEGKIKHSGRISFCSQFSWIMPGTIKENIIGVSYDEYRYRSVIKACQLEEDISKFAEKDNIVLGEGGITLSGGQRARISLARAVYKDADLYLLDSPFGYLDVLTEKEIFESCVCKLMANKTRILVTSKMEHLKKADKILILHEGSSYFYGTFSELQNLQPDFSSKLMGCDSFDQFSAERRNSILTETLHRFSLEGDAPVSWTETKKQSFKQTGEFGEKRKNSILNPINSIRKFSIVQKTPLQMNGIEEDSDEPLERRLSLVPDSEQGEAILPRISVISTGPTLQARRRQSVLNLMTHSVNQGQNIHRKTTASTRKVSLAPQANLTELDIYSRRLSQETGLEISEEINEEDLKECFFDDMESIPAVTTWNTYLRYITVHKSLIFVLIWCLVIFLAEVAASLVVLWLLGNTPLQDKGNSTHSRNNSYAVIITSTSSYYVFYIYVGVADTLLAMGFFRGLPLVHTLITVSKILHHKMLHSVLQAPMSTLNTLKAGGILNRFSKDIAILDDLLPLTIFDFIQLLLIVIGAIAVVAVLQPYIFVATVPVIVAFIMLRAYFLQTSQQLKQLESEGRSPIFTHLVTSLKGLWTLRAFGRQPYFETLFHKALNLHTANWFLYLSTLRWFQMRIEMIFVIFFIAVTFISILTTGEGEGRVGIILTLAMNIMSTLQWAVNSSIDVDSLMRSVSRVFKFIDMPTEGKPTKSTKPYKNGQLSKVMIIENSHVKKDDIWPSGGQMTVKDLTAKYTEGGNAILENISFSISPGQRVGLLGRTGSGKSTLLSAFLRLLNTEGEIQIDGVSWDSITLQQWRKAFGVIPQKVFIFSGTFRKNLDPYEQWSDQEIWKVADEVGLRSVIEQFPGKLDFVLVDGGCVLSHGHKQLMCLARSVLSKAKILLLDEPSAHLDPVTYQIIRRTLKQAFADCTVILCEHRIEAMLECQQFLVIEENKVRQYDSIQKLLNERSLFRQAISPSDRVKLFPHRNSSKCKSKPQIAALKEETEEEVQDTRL

For the molecule `COCCS(=O)(=O)N1CCN2C(=O)[C@H](CC(C)C)N(C)C(=O)C[C@@H](C(=O)NCCc3cccc(OC)c3)NC(=O)c3c(ccc4ccccc34)OC[C@@H](Cc3ccccc3)NC(=O)[C@H]2C1` [Example 733, (4aR,7R,18S,22S)-7-benzyl-22-isobutyl-3-((2-methoxyethyl)sulfonyl)-N-(3-methoxyphenethyl)-21-methyl-5,16,20,23-tetraoxo-2,3,4,4a,5,6,7,8,16,17,18,19,20,21,22,23-hexadecahydro-1H-naphtho[1,2-p]pyrazino[2,1-f][1]oxa[4,7,10,14]tetraazacycloheptadecine-18-carboxamide], the concentration giving a half-maximal response (EC50) (as a rule, the concentration that produces a half-maximal response) was 349 nM and the maximal response (Emax) (in general, the size of the effect at its maximum, as opposed to the concentration needed) was determined as 235%.
On the same counts, the results for `COc1cccc(CCNC(=O)[C@@H]2CC(=O)N(C)[C@@H](CC(C)C)C(=O)N3CCN(S(=O)(=O)C4CCOCC4)C[C@@H]3C(=O)N[C@H](Cc3ccccc3)COc3ccc4ccccc4c3C(=O)N2)c1` [Example 734, (4aR,7R,18S,22S)-7-benzyl-22-isobutyl-N-(3-methoxyphenethyl)-21-methyl-5,16,20,23-tetraoxo-3-((tetrahydro-2H-pyran-4-yl)sulfonyl)-2,3,4,4a,5,6,7,8,16,17,18,19,20,21,22,23-hexadecahydro-1H-naphtho[1,2-p]pyrazino[2,1-f][1]oxa[4,7,10,14]tetraazacycloheptadecine-18-carboxamide] are 299 nM and 325%.
Consider `COc1cccc(CCNC(=O)[C@@H]2CC(=O)N(C)[C@@H](CC(C)C)C(=O)N3CCN(S(=O)(=O)CCN(C)C)C[C@@H]3C(=O)N[C@H](Cc3ccccc3)COc3ccc4ccccc4c3C(=O)N2)c1` [Example 735, (4aR,7R,18S,22S)-7-benzyl-3-((2-(dimethylamino)ethyl)sulfonyl)-22-isobutyl-N-(3-methoxyphenethyl)-21-methyl-5,16,20,23-tetraoxo-2,3,4,4a,5,6,7,8,16,17,18,19,20,21,22,23-hexadecahydro-1H-naphtho[1,2-p]pyrazino[2,1-f][1]oxa[4,7,10,14]tetraazacycloheptadecine-18-carboxamide], for which the 50% effective concentration (EC50) came to 314 nM and the Emax was found to be 176%.
Consider `COc1cccc(CCNC(=O)[C@@H]2CC(=O)N(C)[C@@H](CC(C)C)C(=O)N3CCN(S(=O)(=O)Cc4ccccc4)C[C@@H]3C(=O)N[C@H](Cc3ccccc3)COc3ccc4ccccc4c3C(=O)N2)c1` [Example 736, (4aR,7R,18S,22S)-7-benzyl-3-(benzylsulfonyl)-22-isobutyl-N-(3-methoxyphenethyl)-21-methyl-5,16,20,23-tetraoxo-2,3,4,4a,5,6,7,8,16,17,18,19,20,21,22,23-hexadecahydro-1H-naphtho[1,2-p]pyrazino[2,1-f][1]oxa[4,7,10,14]tetraazacycloheptadecine-18-carboxamide], for which the concentration for a half-maximal effect (EC50) is 153 nM and the Emax is 286%.
In the same order, the values of `COc1cccc(CCNC(=O)[C@@H]2CC(=O)N(C)[C@@H](CC(C)C)C(=O)N3CCN(S(=O)(=O)c4ccc5oc(=O)[nH]c5c4)C[C@@H]3C(=O)N[C@H](Cc3ccccc3)COc3ccc4ccccc4c3C(=O)N2)c1` [Example 737, (4aR,7R,18S,22S)-7-benzyl-22-isobutyl-N-(3-methoxyphenethyl)-21-methyl-5,16,20,23-tetraoxo-3-((2-oxo-2,3-dihydrobenzo[d]oxazol-5-yl)sulfonyl)-2,3,4,4a,5,6,7,8,16,17,18,19,20,21,22,23-hexadecahydro-1H-naphtho[1,2-p]pyrazino[2,1-f][1]oxa[4,7,10,14]tetraazacycloheptadecine-18-carboxamide] are 665 nM and 298%.
For `COc1cccc(CCNC(=O)[C@@H]2CC(=O)N(C)[C@@H](CC(C)C)C(=O)N3CCN(S(=O)(=O)Cc4cccc5cccnc45)C[C@@H]3C(=O)N[C@H](Cc3ccccc3)COc3ccc4ccccc4c3C(=O)N2)c1` [Example 738, (4aR,7R,18S,22S)-7-benzyl-22-isobutyl-N-(3-methoxyphenethyl)-21-methyl-5,16,20,23-tetraoxo-3-((quinolin-8-ylmethyl)sulfonyl)-2,3,4,4a,5,6,7,8,16,17,18,19,20,21,22,23-hexadecahydro-1H-naphtho[1,2-p]pyrazino[2,1-f][1]oxa[4,7,10,14]tetraazacycloheptadecine-18-carboxamide], the 50% effective concentration (EC50) amounted to 110 nM and the Emax came out at 256%.
In the same order, the values of `COc1cccc(CCNC(=O)[C@@H]2CC(=O)N(C)[C@@H](CC(C)C)C(=O)N3CCN(S(=O)(=O)c4cccc(OC)c4)C[C@@H]3C(=O)N[C@H](Cc3ccccc3)COc3ccc4ccccc4c3C(=O)N2)c1` [Example 739, (4aR,7R,18S,22S)-7-benzyl-22-isobutyl-N-(3-methoxyphenethyl)-3-((3-methoxyphenyl)sulfonyl)-21-methyl-5,16,20,23-tetraoxo-2,3,4,4a,5,6,7,8,16,17,18,19,20,21,22,23-hexadecahydro-1H-naphtho[1,2-p]pyrazino[2,1-f][1]oxa[4,7,10,14]tetraazacycloheptadecine-18-carboxamide] are 101 nM and 297%.
On the same counts, the results for `COc1cccc(CCNC(=O)[C@@H]2CC(=O)N(C)[C@@H](CC(C)C)C(=O)N3CCN(S(=O)(=O)c4cc(OC)ccc4F)C[C@@H]3C(=O)N[C@H](Cc3ccccc3)COc3ccc4ccccc4c3C(=O)N2)c1` [Example 740, (4aR,7R,18S,22S)-7-benzyl-3-((2-fluoro-5-methoxyphenyl)sulfonyl)-22-isobutyl-N-(3-methoxyphenethyl)-21-methyl-5,16,20,23-tetraoxo-2,3,4,4a,5,6,7,8,16,17,18,19,20,21,22,23-hexadecahydro-1H-naphtho[1,2-p]pyrazino[2,1-f][1]oxa[4,7,10,14]tetraazacycloheptadecine-18-carboxamide] are 111 nM and 280%.
On the same counts, the results for `COc1cccc(CCNC(=O)[C@@H]2CC(=O)N(C)[C@@H](CC(C)C)C(=O)N3CCN(S(=O)(=O)c4ccc5c(c4)OCCN5C)C[C@@H]3C(=O)N[C@H](Cc3ccccc3)COc3ccc4ccccc4c3C(=O)N2)c1` [Example 741, (4aR,7R,18S,22S)-7-benzyl-22-isobutyl-N-(3-methoxyphenethyl)-21-methyl-3-((4-methyl-3,4-dihydro-2H-benzo[b][1,4]oxazin-7-yl)sulfonyl)-5,16,20,23-tetraoxo-2,3,4,4a,5,6,7,8,16,17,18,19,20,21,22,23-hexadecahydro-1H-naphtho[1,2-p]pyrazino[2,1-f][1]oxa[4,7,10,14]tetraazacycloheptadecine-18-carboxamide] are 116 nM and 294%.
For the molecule `COc1cccc(CCNC(=O)[C@@H]2CC(=O)N(C)[C@@H](CC(C)C)C(=O)N3CCN(S(=O)(=O)c4cccnc4)C[C@@H]3C(=O)N[C@H](Cc3ccccc3)COc3ccc4ccccc4c3C(=O)N2)c1` [Example 742, (4aR,7R,18S,22S)-7-benzyl-22-isobutyl-N-(3-methoxyphenethyl)-21-methyl-5,16,20,23-tetraoxo-3-(pyridin-3-ylsulfonyl)-2,3,4,4a,5,6,7,8,16,17,18,19,20,21,22,23-hexadecahydro-1H-naphtho[1,2-p]pyrazino[2,1-f][1]oxa[4,7,10,14]tetraazacycloheptadecine-18-carboxamide], the concentration for a half-maximal effect (EC50) was found to be 214 nM and the maximal response (Emax) came to 246%.
